{
  "source": "patent US20080318912A1",
  "about": "“Medicaments for Treating Chronic Respiratory Disease” (priority 2004, published 2008)",
  "key": {"[1]": {"test_system": "TS induced inflammation (cells recovered in the BAL)", "assay": "Tobacco smoke (TS) induced inflammation, BAL cell counts 24 h after 11 daily exposures", "assay_type": "in vivo, A/J mice", "conditions": "for Inhibition, Total Cells (BAL) / Inhibition, Eosinophils (BAL) / Inhibition, Epithelial Cells (BAL) / Inhibition, Lymphocytes (BAL) / Inhibition, Macrophages (BAL) / Inhibition, Neutrophils (BAL): 11 daily TS exposures", "from_the_text": "Female inbred AJ mice (body weights on initial day of use: 17.2-27.4 g) were obtained from Harlan, full barrier bred and certified free from specified micro-organisms on receipt. The mice were housed, up to 5 per cage, in individually ventilated, polycarbonate solid bottomed cages (IVC) with grade 8 aspen chip bedding. Environment (airflow, temperature and humidity) within the cages was controlled by the IVC system (Techniplast). Food (RM 1, Special Diet Services) and water were provided ad libitum. Individual animals were identified by unique coloured “pentel” markings on their tails, weighed and randomly assigned to treatment groups.\nThe required quantity of compound was placed into a mortar. Half the required volume CMC was slowly added to form a fine paste and then this was carefully added back to a container. The residual volume of CMC required to achieve the required dose is used to wash out the mortar and the washings added back to the container. For the combination dose, each compound was formulated at double the final required concentration and an equal volume of each compound added together. […]\nIn this exposure protocol, mice were exposed in groups of 5 in individual clear polycarbonate chambers (27 cm×16 cm×12 cm). The TS from the cigarettes was allowed to enter the exposure chambers at a flow rate of 100 ml/min. In order to minimise any potential problems caused by repeated exposure to a high level of TS (6 cigarettes), the exposure of the mice to TS was increased gradually over the exposure period to a maximum of 6 cigarettes. The exposure schedule used in this study was as follows:\n(§1) The trachea was cannulated using a Portex nylon intravenous cannula (pink luer fitting) shortened to approximately 8 mm. Phosphate buffered saline (PBS) containing heparin (10 units/ml) was used as the lavage fluid. A volume of 0.4 ml was gently instilled and withdrawn 3 times using a 1 ml syringe and then placed in an Eppendorf tube and kept on ice prior to subsequent determinations.\n(§2) Lavage fluid was separated from cells by centrifugation and the supernatant decanted and frozen for subsequent analysis. The cell pellet was re-suspended in a known volume of PBS and total cell numbers calculated by counting a stained (Turks stain) aliquot under a microscope using a haemocytometer.\n(§3) The residual cell pellet was diluted to approximately 10^5 cells per ml. A volume of 500 μl was placed in the funnel of a cytospin slide and centrifuged for 8 min at 800 rpm. The slide was air dried and stained using ‘Kwik-Diff’ solutions (Shandon) as per the proprietary instructions. When dried and cover-slipped, differential cells were counted using light microscopy. Up to 400 cells were counted by un biased operator using light microscopy. Cells were differentiated using standard morphometric techniques.\nIn addition, animals receiving steroid or the steroid combination were dosed with steroid 20 h prior to the first TS exposure. The control group of mice (shams) received vehicle on days 1 to 11 and were exposed to air daily for a maximum of 50 minutes per day. BAL was performed on day 12, 24 h following the eleventh and final TS exposure.\nSince tests for normality were positive the data was subjected to a one way analysis of variance test (ANOVA), followed by a Bonferroni correction for multiple comparisons in order to test for significance between treatment groups. A “p” value of <0.05 was considered to be statistically significant. Percentage inhibitions were automatically calculated within the Excel spreadsheets for the cell data using the formula below: […]\nAnimals were sacrificed 24 h post the final exposure to TS/air. A BAL was performed and the total number of cells recovered counted. Data are presented as individual points and the mean values shown. Data are from 9-10 animals per group. Statistical analysis was by ANOVA. A “p” value of <0.05 was considered statistically significant. ns=not statistically significant."}, "[2]": {"test_system": "LPS induced increases in BAL cells", "assay": "LPS challenge induced inflammation, BAL cell counts 24 h post challenge", "assay_type": "in vivo, A/J mice", "method": "Previous studies have shown that peak BAL neutrophilia is achieved 24 h post intranasal challenge with LPS at 0.3 μg. In the studies reported here this dose of LPS and this time point were employed. Control animals received phosphate buffered saline (PBS) intranasally.\nApproximately 3 min prior to intra-nasal challenge anaesthesia was induced by isofluorane inhalation. Vehicle (PBS) or LPS was instilled at 50 μl per mouse. The LPS concentration was 6 μg/ml (0.3 μg per mouse). Animals were allowed to recover in a heated box at 37° C. and then returned to the home cage.\nas §1, §2, §3\nAnimals were sacrificed 24 h post the LPS challenge. A BAL was performed and the total number of cells recovered counted. Data are presented as individual points and the mean values shown. Data are from 9-10 animals per group. Statistical analysis was by ANOVA. […]"}, "[3]": {"assay": "Pharmacokinetic evaluation of plasma levels of theophylline after oral dosing", "assay_type": "in vivo, A/J mice", "conditions": "for concentration at 15 min / concentration at 30 min / concentration at 60 min / concentration at 240 min: A/J, mouse, plasma; for concentration at 15 min: 15 minutes post dosing; for concentration at 60 min: 60 minutes post dosing; for concentration at 240 min: 240 minutes post dosing", "method": "The collected blood was mixed and decanted into eppendorf tubes before centrifugation in a microftige. Plasma was collected and stored at −80° C. prior to analysis by an HPLC/MS/MS method. The equipment used in the measurement of plasma levels were a Micromann Quatro Micro Mass Spectrometer (Micromass UK Limited) and a Waters 2795 Alliance HT liquid chromatograph (Waters USA).\nSamples were prepared for analysis by adding 200 μl of acetonitrile (containing 0.25 mg/l dextrorphan as an internal standard) to 50 μl of each thawed sample and standard and mixed vigorously. Each sample and standard was then centrifuged at 1000 g for 2 minutes and the supernatant removed for LC-MS/MS analysis.\nAnalysis of theophylline and dextrorphan was carried out using reverse phase HPLC with tandem mass spectrometric detection (LC-MS/MS). Positive ions for parent compound and a specific fragment product were monitored in a Multiple Reaction Monitoring mode using a Micromass Quatro Micro Mass Spectrometer with Micromass MassLynx software version 4.0. A 25 μl aliquot of each sample and standard was injected onto the liquid chromatography system."}, "[4]": {"conditions": "250 or 375 mg theophylline with 400 μg budesonide twice daily, asthma patients; cited from earlier work"}, "[5]": {"test_system": "phosphodiesterases", "conditions": "cited from earlier work"}, "[6]": {"test_system": "adenosine receptors (A1 and A2 receptors)", "conditions": "at therapeutic concentrations; cited from earlier work"}, "[7]": {"conditions": "cited from earlier work"}, "[8]": {"conditions": "theophylline 3 mg/kg p.o. twice daily, BAL 24 h post"}, "[9]": {"conditions": "dexamethasone 0.3 mg/kg p.o. twice daily, BAL 24 h post"}, "[10]": {"conditions": "dexamethasone 0.3 mg/kg p.o. at -20, -1 and 6 h relative to LPS (0.3 μg i.n.), BAL 24 h post challenge"}},
  "note": "Read-outs that look alike come from different tables or passages of the source.",
  "data": [
    {"molecule": "Cn1c(=O)c2[nH]cnc2n(C)c1=O", "note": "[Theophylline, 3,7-dihydro-1,3-dimethyl-1H-purine-2,6-dione]", "values": [
      {"measurement": "Inhibitory effect on any of the specific cell types (BAL)", "setting": "[1]; theophylline 3 mg/kg alone p.o., 1 h prior to and 6 h post TS, 11 days", "value": "No statistically significant inhibitory effect"},
      {"measurement": "Inhibition, Total Cells (BAL)", "setting": "[1]; theophylline 3 mg/kg p.o. twice daily (-1 h and +6 h), BAL 24 h post final exposure", "value": "−11", "unit": "%"},
      {"measurement": "Inhibition, Eosinophils (BAL)", "setting": "[1]; [8]", "value": "−56", "unit": "%"},
      {"measurement": "Inhibition, Epithelial Cells (BAL)", "setting": "[1]; [8]", "value": "−18", "unit": "%"},
      {"measurement": "Inhibition, Lymphocytes (BAL)", "setting": "[1]; [8]", "value": 1, "unit": "%"},
      {"measurement": "Inhibition, Macrophages (BAL)", "setting": "[1]; [8]", "value": "−4", "unit": "%"},
      {"measurement": "Inhibition, Neutrophils (BAL)", "setting": "[1]; [8]", "value": "−10", "unit": "%"},
      {"measurement": "Anti-inflammatory activity in the COPD (TS) model", "setting": "[1]; theophylline given alone", "value": "failed to demonstrate any significant anti-inflammatory activity"},
      {"measurement": "Activity on LPS induced pulmonary inflammation", "setting": "[2]; theophylline at the dose level tested (0.3 mg/kg p.o.)", "value": "without activity"},
      {"measurement": "concentration at 15 min", "setting": "[3]; oral dose 0.3 mg/kg, mean ± SD", "value": "130 ± 6", "unit": "ng/mL"},
      {"measurement": "concentration at 30 min", "setting": "[3]; oral dose 0.3 mg/kg, 30 minutes post dosing, mean ± SD", "value": "140 ± 25", "unit": "ng/mL"},
      {"measurement": "concentration at 60 min", "setting": "[3]; oral dose 0.3 mg/kg, mean ± SD", "value": "256 ± 198", "unit": "ng/mL"},
      {"measurement": "concentration at 240 min", "setting": "[3]; oral dose 0.3 mg/kg, mean ± SD", "value": "65 ± 11", "unit": "ng/mL"},
      {"measurement": "concentration at 15 min", "setting": "[3]; oral dose 1 mg/kg, mean ± SD", "value": "740 ± 760", "unit": "ng/mL"},
      {"measurement": "concentration at 30 min", "setting": "[3]; oral dose 1 mg/kg, 30 minutes post dosing, mean ± SD", "value": "660 ± 122", "unit": "ng/mL"},
      {"measurement": "concentration at 60 min", "setting": "[3]; oral dose 1 mg/kg, mean ± SD", "value": "410 ± 84", "unit": "ng/mL"},
      {"measurement": "concentration at 240 min", "setting": "[3]; oral dose 1 mg/kg, mean ± SD", "value": "60 ± 15", "unit": "ng/mL"},
      {"measurement": "concentration at 15 min", "setting": "[3]; oral dose 3 mg/kg, mean ± SD", "value": "1860 ± 290", "unit": "ng/mL"},
      {"measurement": "concentration at 30 min", "setting": "[3]; oral dose 3 mg/kg, 30 minutes post dosing, mean ± SD", "value": "3660 ± 2640", "unit": "ng/mL"},
      {"measurement": "concentration at 60 min", "setting": "[3]; oral dose 3 mg/kg, mean ± SD", "value": "1470 ± 110", "unit": "ng/mL"},
      {"measurement": "concentration at 240 min", "setting": "[3]; oral dose 3 mg/kg, mean ± SD", "value": "90 ± 100", "unit": "ng/mL"},
      {"measurement": "Plasma concentrations at all time points", "setting": "[3]; oral dose 0.3 mg/kg", "value": "less than 1 mg/l"},
      {"measurement": "Time of peak levels", "setting": "[3]; oral dose 3 mg/kg", "value": 30, "unit": "min"},
      {"measurement": "Plasma level of the one animal above 5 mg/l", "setting": "[3]; oral dose 3 mg/kg, 30 minute time point, single animal", "value": 6.7, "unit": "mg/A"},
      {"measurement": "Plasma Levels", "setting": "[3]; oral dose 3 mg/kg, 30 minutes post dosing, mean ± SD, 3 mg/kg", "value": "3660 ± 2640", "unit": "ng/mL"},
      {"measurement": "Plasma concentration achieved (median value)", "setting": "[4]", "value": 8700, "unit": "ng/mL"},
      {"measurement": "Inhibition of phosphodiesterases", "setting": "[5]", "value": "weak and nonselective inhibitor"},
      {"measurement": "Inhibition of adenosine receptors (antagonism of A1 and A2 receptors)", "setting": "[6]", "value": "potent inhibitor"},
      {"measurement": "Bioavailability", "setting": "[7]; absorption from the gastrointestinal tract", "value": "90-100%"},
      {"measurement": "Mean plasma half-life", "setting": "[7]; adults", "value": "about 8 hours"},
      {"measurement": "Plasma levels regarded as being necessary for anti-inflammatory efficacy", "setting": "[7]; in vivo", "value": "10000 to 20000", "unit": "ng/mL"},
      {"measurement": "Plasma half-life", "setting": "[7]; premature neonates", "value": "approximately 30 hours"},
      {"measurement": "Time to peak levels following ingestion", "setting": "[7]; slowed by the presence of food", "value": "1 to 2", "unit": "h"},
      {"measurement": "Plasma half-life", "setting": "[7]; up to the age of 20", "value": "approximately 3.5 hours"}
    ]},
    {"molecule": "C[C@@H]1C[C@H]2[C@@H]3CCC4=CC(=O)C=C[C@]4(C)[C@@]3(F)[C@@H](O)C[C@]2(C)[C@@]1(O)C(=O)CO", "note": "[Dexamethasone, dexamethasone]", "values": [
      {"measurement": "Inhibition, Eosinophils (BAL)", "setting": "[1]; [9]", "value": "−94", "unit": "%"},
      {"measurement": "Inhibition, Epithelial Cells (BAL)", "setting": "[1]; [9]", "value": "−20", "unit": "%"},
      {"measurement": "Inhibition, Lymphocytes (BAL)", "setting": "[1]; [9]", "value": "−7", "unit": "%"},
      {"measurement": "Inhibition, Macrophages (BAL)", "setting": "[1]; [9]", "value": "−14", "unit": "%"},
      {"measurement": "Inhibition, Neutrophils (BAL)", "setting": "[1]; [9]", "value": "−46", "unit": "%"},
      {"measurement": "Inhibition, Total Cells (BAL)", "setting": "[1]; [9]", "value": "−16", "unit": "%"},
      {"measurement": "Reduction of neutrophils in BAL", "setting": "[2]; [10]", "value": 71, "unit": "%"},
      {"measurement": "Reduction of total cells in BAL", "setting": "[2]; [10]", "value": 68, "unit": "%"}
    ]}
  ]
}
